{"source": "patent US6020341A", "about": "“Enediyne quinone imines and methods of preparation and use thereof” (priority 1997, dated 2000)", "key": {"sarcoma 180 [1]": {"tested_on": "sarcoma 180", "assay": "Antitumor activity against sarcoma 180 in mice (s.c. tumor, i.p. treatment)", "assay_type": "in vivo, mouse", "description": "^a Tumor (2 × 10^6 cells) was inoculated s.c. Treatment\nstarted day 4, QD × 5, i.p.; control had nine mice, and each dose\ntwo mice; tumor size was evaluated on Day 7 after the beginning of\nstarted day 4, I.P., QD × 5; control had 3 mice, and each dose had\nmice; Tumor size was evaluated on day 7 after the beginning of treatment."}, "solid tumor": {"tested_on": "solid tumor", "assay": "In vivo toxicity and efficacy in tumor bearing mice (Tables 5-7)", "set-up": "species or system mouse", "conditions": "i.p., in words"}, "[2]": {"tested_on": "Lewis lung adenocarcinoma", "assay": "Anticancer activity in B6D2F1 mice bearing Lewis lung adenocarcinoma", "assay_type": "in vivo, mouse", "description": "^a Tumor (2.5 × 10E6 cells) was inoculated S.C. on day (-3).\nTreatment started on day 1, I.P., Q.D.X5. Control had 6 mice and each dos\nhad 5 mice. Tumor size was evaluated on day 7, day 10 and day 14."}, "[3]": {"tested_on": "Human breast adenocarcinoma cells (SK-Br-3)", "assay": "Cytotoxicity, SK-Br-3", "assay_type": "cell-based", "conditions": "for IC50 / IC90: Homo sapiens; for IC90: read-out: Cytotoxic Concentration IC90", "source_text": "(§1) | cell growth by 50% (IC50) in μM."}, "sarcoma 180 [4]": {"tested_on": "sarcoma 180", "assay": "Antitumor activity against sarcoma 180 in B6D2F1 mice, b.i.d.x5", "assay_type": "in vivo, mouse", "source_text": "^a Tumor (3 × 10^6 cells) was inoculated S.C. on day -3.\nAntitumor treatment started on day 1, b.i.d.X5, IP."}, "833K solid tumor cells": {"tested_on": "833K solid tumor cells", "assay": "Growth inhibition, SRB assay, 833K", "assay_type": "cell-based", "conditions": "Homo sapiens, Table 8, 833K", "description": "Cells were platted on day 1, drug was added on day 2, and XTT assays (for HL-60, MT-2, MT-4 leukemic cells) or SRB assays (for 833K and SK-Br-3 solid tumor cells) were carried out on day 5."}, "[5]": {"tested_on": "Chinese hamster lung cells (DC-3F)", "assay": "Cytotoxicity, DC-3F", "assay_type": "cell-based", "conditions": "for IC50 / IC90: Cricetulus griseus, DC3F; for IC90: read-out: Cytotoxic Concentration IC90", "source_text": "as §1"}, "[6]": {"conditions": "Table 6, 0.2 mg/kg i.p. QD×5, day 7"}, "[7]": {"conditions": "Table 6, 0.5 mg/kg i.p. QD×5, day 7"}, "[8]": {"conditions": "Table 6, 2.0 mg/kg i.p. QD×5, day 7"}, "[9]": {"conditions": "Table 11, 0.5 mg/kg i.p. Q.D.X5, Day 7"}, "[10]": {"conditions": "Table 11, 0.5 mg/kg i.p. Q.D.X5, Day 10"}, "[11]": {"conditions": "Table 11, 1.0 mg/kg i.p. Q.D.X5, Day 7"}, "[12]": {"conditions": "Table 11, 1.0 mg/kg i.p. Q.D.X5, Day 10"}, "[13]": {"conditions": "Table 11, 1.5 mg/kg i.p. Q.D.X5, Day 7"}, "[14]": {"conditions": "Table 11, 1.5 mg/kg i.p. Q.D.X5, Day 10"}, "[15]": {"conditions": "Table 11, 2.0 mg/kg i.p. Q.D.X5, Day 7"}, "[16]": {"conditions": "Table 11, 2.0 mg/kg i.p. Q.D.X5, Day 10"}, "[17]": {"conditions": "Table 12, 0.15 mg/kg IP b.i.d.X5, Day 7"}, "[18]": {"conditions": "Table 12, 0.15 mg/kg IP b.i.d.X5, Day 14"}, "[19]": {"conditions": "Table 12, 0.2 mg/kg IP b.i.d.X5, Day 7"}, "[20]": {"conditions": "Table 12, 0.2 mg/kg IP b.i.d.X5, Day 14"}, "[21]": {"conditions": "Table 12, 0.3 mg/kg IP b.i.d.X5, Day 7"}, "[22]": {"conditions": "Table 12, 0.3 mg/kg IP b.i.d.X5, Day 14"}}, "note": "Where two headings read alike, the source gives them in different places.", "data": [{"smiles": "CO[C@@]12[C@H](COC(N)=O)C3=C(C(=O)C(C)=C(N)C3=O)N1C[C@@H]1N[C@@H]12", "note": "[mitomycin C]", "values": [{"measurement": "tumor inhibition", "setting": "sarcoma 180 [1]; 0.5 mg/kg i.p. QDx5, sarcoma", "value": 37.5, "unit": "%"}, {"measurement": "AVE TUMOR VOLUME (T/C)", "setting": "sarcoma 180 [1]; [6]", "value": 0.845}, {"measurement": "AWC (average weight change)", "setting": "sarcoma 180 [1]; [6]", "value": -0.5, "unit": "g"}, {"measurement": "AVE TUMOR VOLUME (T/C)", "setting": "sarcoma 180 [1]; [7]", "value": 0.625}, {"measurement": "AWC (average weight change)", "setting": "sarcoma 180 [1]; [7]", "value": -2.3, "unit": "g"}, {"measurement": "AVE TUMOR VOLUME (T/C)", "setting": "sarcoma 180 [1]; [8]", "value": 0.188}, {"measurement": "AWC (average weight change)", "setting": "sarcoma 180 [1]; [8]", "value": -1.4, "unit": "g"}, {"measurement": "solid tumor growth inhibition / therapeutic efficacy", "setting": "solid tumor", "value": "Therapeutic efficacy in mice for both appeared similar"}, {"measurement": "AWC (average weight change)", "setting": "[2]; [9]", "value": -1.5, "unit": "g"}, {"measurement": "Avg Tumor Vol (T/C)", "setting": "[2]; [9]", "value": 0.530}, {"measurement": "AWC (average weight change)", "setting": "[2]; [10]", "value": -0.1, "unit": "g"}, {"measurement": "Avg Tumor Vol (T/C)", "setting": "[2]; [10]", "value": 0.712}, {"measurement": "AWC (average weight change)", "setting": "[2]; [11]", "value": -0.8, "unit": "g"}, {"measurement": "Avg Tumor Vol (T/C)", "setting": "[2]; [11]", "value": 0.380}, {"measurement": "AWC (average weight change)", "setting": "[2]; [12]", "value": -0.9, "unit": "g"}, {"measurement": "Avg Tumor Vol (T/C)", "setting": "[2]; [12]", "value": 0.451}, {"measurement": "AWC (average weight change)", "setting": "[2]; [13]", "value": -1.5, "unit": "g"}, {"measurement": "Avg Tumor Vol (T/C)", "setting": "[2]; [13]", "value": 0.340}, {"measurement": "AWC (average weight change)", "setting": "[2]; [14]", "value": -1.3, "unit": "g"}, {"measurement": "Avg Tumor Vol (T/C)", "setting": "[2]; [14]", "value": 0.402}, {"measurement": "mortality", "setting": "[2]; Table 11, 2.0 mg/kg i.p. Q.D.X5", "value": "One of 5 mice died on day 7"}, {"measurement": "AWC (average weight change)", "setting": "[2]; [15]", "value": -1.8, "unit": "g"}, {"measurement": "Avg Tumor Vol (T/C)", "setting": "[2]; [15]", "value": 0.286}, {"measurement": "AWC (average weight change)", "setting": "[2]; [16]", "value": 1.6, "unit": "g"}, {"measurement": "Avg Tumor Vol (T/C)", "setting": "[2]; [16]", "value": 0.485}, {"measurement": "IC50", "setting": "[3]; SK-BR-3, Table 2, SK-Br-3 (Breast), read-out: concentration required to inhibit cell growth by 50% (IC50)", "value": 993, "unit": "nM"}, {"measurement": "IC50", "setting": "[3]; SK-BR-3, Table 4, SK-Br-3, read-out: Cytotoxic Concentration IC50", "value": 993, "unit": "nM"}, {"measurement": "IC90", "setting": "[3]; SK-BR-3, Table 4, SK-Br-3", "value": 21800, "unit": "nM"}, {"measurement": "IC50", "setting": "[3]; SK-BR-3, Table 13, SK-Br-3, read-out: Cytotoxic Concentration IC50", "value": 2340, "unit": "nM"}, {"measurement": "IC90", "setting": "[3]; SK-BR-3, Table 13, SK-Br-3", "value": 62900, "unit": "nM"}, {"measurement": "Cytotoxic Concentration IC95", "setting": "[3]; Table 4, SK-Br-3", "value": 62300, "unit": "nM"}, {"measurement": "ratio of IC50 to EQI-6 (in parentheses)", "setting": "[3]; Table 4, SK-Br-3, EQI-6 = (1)", "value": 29.2, "unit": "×"}, {"measurement": "ratio of IC90 to EQI-6 (in parentheses)", "setting": "[3]; Table 4, SK-Br-3, EQI-6 = (1)", "value": 16.6, "unit": "×"}, {"measurement": "ratio of IC95 to EQI-6 (in parentheses)", "setting": "[3]; Table 4, SK-Br-3, EQI-6 = (1)", "value": 187.7, "unit": "×"}, {"measurement": "Cytotoxic Concentration IC95", "setting": "[3]; Table 13, SK-Br-3", "value": 192890, "unit": "nM"}, {"measurement": "AWC (average weight change)", "setting": "sarcoma 180 [4]; [17]", "value": -0.6, "unit": "g"}, {"measurement": "Avg Tumor Volume (T/C)", "setting": "sarcoma 180 [4]; [17]", "value": 0.650}, {"measurement": "AWC (average weight change)", "setting": "sarcoma 180 [4]; [18]", "value": "+0.2 g"}, {"measurement": "Avg Tumor Volume (T/C)", "setting": "sarcoma 180 [4]; [18]", "value": 0.814}, {"measurement": "AWC (average weight change)", "setting": "sarcoma 180 [4]; [19]", "value": "+0.8 g"}, {"measurement": "Avg Tumor Volume (T/C)", "setting": "sarcoma 180 [4]; [19]", "value": 0.538}, {"measurement": "AWC (average weight change)", "setting": "sarcoma 180 [4]; [20]", "value": -0.6, "unit": "g"}, {"measurement": "Avg Tumor Volume (T/C)", "setting": "sarcoma 180 [4]; [20]", "value": 0.485}, {"measurement": "AWC (average weight change)", "setting": "sarcoma 180 [4]; [21]", "value": -1.8, "unit": "g"}, {"measurement": "Avg Tumor Volume (T/C)", "setting": "sarcoma 180 [4]; [21]", "value": 0.249}, {"measurement": "AWC (average weight change)", "setting": "sarcoma 180 [4]; [22]", "value": -1.0, "unit": "g"}, {"measurement": "Avg Tumor Volume (T/C)", "setting": "sarcoma 180 [4]; [22]", "value": 0.394}, {"measurement": "IC50", "setting": "833K solid tumor cells", "value": 300, "unit": "nM"}, {"measurement": "IC50", "setting": "[5]; Table 2, DC-3F, read-out: concentration required to inhibit cell growth by 50% (IC50)", "value": 81, "unit": "nM"}, {"measurement": "IC50", "setting": "[5]; Table 4, DC-3F, read-out: Cytotoxic Concentration IC50", "value": 81.2, "unit": "nM"}, {"measurement": "IC90", "setting": "[5]; Table 4, DC-3F", "value": 374, "unit": "nM"}, {"measurement": "IC50", "setting": "[5]; Table 13, DC-3F, read-out: Cytotoxic Concentration IC50", "value": 59, "unit": "nM"}, {"measurement": "IC90", "setting": "[5]; Table 13, DC-3F", "value": 166, "unit": "nM"}, {"measurement": "Cytotoxic Concentration IC95", "setting": "[5]; Table 4, DC-3F", "value": 629, "unit": "nM"}, {"measurement": "ratio of IC50 to EQI-6 (in parentheses)", "setting": "[5]; Table 4, DC-3F, EQI-6 = (1)", "value": 45.1, "unit": "×"}, {"measurement": "ratio of IC90 to EQI-6 (in parentheses)", "setting": "[5]; Table 4, DC-3F, EQI-6 = (1)", "value": 34, "unit": "×"}, {"measurement": "ratio of IC95 to EQI-6 (in parentheses)", "setting": "[5]; Table 4, DC-3F, EQI-6 = (1)", "value": 31.6, "unit": "×"}, {"measurement": "Cytotoxic Concentration IC95", "setting": "[5]; Table 13, DC-3F", "value": 235, "unit": "nM"}]}]}
